Where a name gives a salt, the structure may show the parent alone.

The term IC90 denotes the concentration at which the effect reaches the 90% level.

The test system of the first assay is Acinetobacter baumannii ATCC17978. As to the kind of experiment: Antimicrobial susceptibility testing: 90% growth inhibitory concentration (IC90) determination, Iso-Sensitest broth, OD 600 nm. It is filed as cell-based. The settings on record: Acinetobacter baumannii, ATCC17978, 16 h, 90% growth inhibitory concentration, Acinetobacter baumannii ATCC17978, Iso-Sensitest broth, OD 600 nm over 16 h; read-out: ATCC 17978 IC90. The method, boiled down:
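Twofold serial dilutions (e.g. 50–0.097 μM final) incubated with ~5×10^5 CFU/ml in Iso-Sensitest broth at 35±2 °C. OD600 read every 20 min for 16 h; IC90 derived from growth inhibition during logarithmic phase.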
For the compound `COc1ccc(-c2cnc3c(Nc4ccc(C(=O)N(C)CCOCCN5CCNC(C(=O)O)C5)c(C)c4)nccn23)cc1F` (stereo not drawn) [Example 166, 4-[2-[2-[[4-[[3-(3-fluoro-4-methoxyphenyl)imidazo[1,2-a]pyrazin-8-yl]amino]-2-methylbenzoyl]-methylamino]ethoxy]ethyl]piperazine-2-carboxylic acid; hydrochloride], the IC90 came out at 4700 nM.

On to `CCNCCCN(CC)C(=O)c1ccc(Nc2nccn3c(-c4ccc(OC)c(F)c4)cnc23)cc1C` [Example 128, N-ethyl-N-[3-(ethylamino)propyl]-4-[[3-(3-fluoro-4-methoxyphenyl)imidazo[1,2-a]pyrazin-8-yl]amino]-2-methyl-benzamide], for which the IC90 turned out to be 3400 nM.

Consider `COc1ccc(-c2cnc3c(Nc4ccc(C(=O)N(C)CCOCCN5CC6(COC6)C5)c(C)c4)nccn23)cc1F` [Example 108, 4-[[3-(3-fluoro-4-methoxyphenyl)imidazo[1,2-a]pyrazin-8-yl]amino]-N,2-dimethyl-N-[2-[2-(2-oxa-6-azaspiro [3.3]heptan-6-yl)ethoxy]ethyl] benzamide], for which the IC90 is 520 nM.

Regarding `COc1ccc(-c2cnc3c(Nc4ccc(C(=O)NCCOCC(=O)N5CCNCC5)c(C)c4)nccn23)cc1F` [Example 105, 4-[[3-(3-fluoro-4-methoxyphenyl)imidazo[1,2-a]pyrazin-8-yl]amino]-2-methyl-N-[2-(2-oxo-2-piperazin-1-ylethoxy)ethyl] benzamide], the IC90 amounted to 480 nM.

For the compound `C#CCOc1ccc(-c2cnc3c(Nc4ccc(C(=O)NCCOCCN)c(C)c4)nccn23)cc1` [Example 28, N-[2-(2-Aminoethoxy)ethyl]-2-methyl-4-[[3-(4-prop-2-ynoxyphenyl)imidazo[1,2-a]pyrazin-8-yl]amino]benzamide; formic acid], the concentration for an effect of 90% (IC90) is 120 nM.

Consider `COc1ccc(-c2cnc3c(Nc4ccc(C(=O)NCCOCCNS(C)(=O)=O)c(C)c4)nccn23)cc1` [Example 109, N-[2-[2-(methane-sulfonamido)ethoxy]ethyl]-4-[[3-(4-methoxyphenyl)imidazo[1,2-a]pyrazin-8-yl]amino]-2-methylbenzamide], for which the IC90 is 530 nM.

On to `COc1ccc(-c2cnc3c(Nc4ccc(C(=O)N(C)CCOCCN5CCNCC5)c(C)c4)nccn23)cc1F` [Example 131, 4-[[3-(3-fluoro-4-methoxyphenyl)imidazo[1,2-a]pyrazin-8-yl]amino]-N,2-dimethyl-N-[2-(2-piperazin-1-ylethoxy)ethyl]benzamide], for which the IC90 was 770 nM.

As to `CCCCC(=O)NCCOCCNC(=O)c1ccc(Nc2nccn3c(-c4ccc(OC)cc4)cnc23)cc1C` [Example 141, 4-[[3-(4-methoxyphenyl)imidazo[1,2-a]pyrazin-8-yl]amino]-2-methyl-N-[2-[2-(pentanoylamino)ethoxy]ethyl] benzamide], the concentration for an effect of 90% (IC90) worked out at 1000 nM.

With `COc1ccc(-c2cnc3c(Nc4cc(F)c(C(=O)NCCOCCN)c(F)c4)nccn23)c(F)c1F` [Example 59, N-(2-(2-aminoethoxy)ethyl)-4-((3-(2,3-difluoro-4-methoxy-phenyl)imidazo[1,2-a]pyrazin-8-yl)amino)-2,6-difluoro-benzamide], the IC90 worked out at 130 nM.

On to `COc1ccc(-c2cnc3c(Nc4ccc(C(=O)N(C)CCOCCN5CCN(C=O)CC5)c(C)c4)nccn23)cc1F` [Example 140, 4-[[3-(3-fluoro-4-methoxyphenyl)imidazo[1,2-a]pyrazin-8-yl]amino]-N-[2-[2-(4-formylpiperazin-1-yl)ethoxy]ethyl]-N,2-dimethyl-benzamide], for which the IC90 came out at 1000 nM.

Consider `CCc1cc(Nc2nccn3c(-c4ccc(OC)c(F)c4F)cnc23)ccc1C(=O)NCCCNCCCN` [Example 184, N-[3-(3-aminopropyl-amino)propyl]-4-[[3-(2,3-difluoro-4-methoxyphenyl)imidazo[1,2-a]pyrazin-8-yl]amino]-2-ethyl-benzamide;2,2,2-trifluoroacetic acid], for which the 90% effect concentration (IC90) stood at 590 nM.

As for `COc1ccc(-c2cnc3c(Nc4ccc(C(=O)NCCSCCN)c(C)c4)nccn23)cc1F` [Example 25, N-(2-((2-aminoethyl)thio)ethyl)-4-((3-(3-fluoro-4-methoxyphenyl)imidazo[1,2-a]pyrazin-8-yl)amino)-2-methylbenzamide], the concentration for an effect of 90% (IC90) came out at 150 nM.

As to `C#CCOc1ccc(-c2cnc3c(Nc4ccc(C(=O)NCCNCCO)c(CC)c4)nccn23)c(F)c1F` [Example 195, 4-[[3-(2,3-difluoro-4-prop-2-ynoxy-phenyl)imidazo[1,2-a]pyrazin-8-yl]amino]-2-ethyl-N-[2-(2-hydroxyethyl-amino)ethyl] benzamide], the 90% effect concentration (IC90) is 490 nM.

Take `COc1ccc(-c2cnc3c(Nc4ccc(C(=O)NCCOCCN5CC6(COC6)C5)c(C)c4)nccn23)cc1` [Example 42, N-(2-(2-(2-oxa-6-azaspiro[3.3]heptan-6-yl)ethoxy)ethyl)-4-((3-(4-methoxyphenyl)imidazo[1,2-a]pyrazin-8-yl)amino)-2-methylbenzamide]: the 90% effect concentration (IC90) is 250 nM.

In the case of `Cc1cc(Nc2nccn3c(-c4ccc(OC(F)F)cc4)cnc23)ccc1C(=O)NCCOCCNC(=O)CN(CCO)CCO` [Example 146, N-[2-[2-[[2-[bis(2-hydroxyethyl)amino]acetyl]amino]ethoxy]ethyl]-4-[[3-[4-(difluoromethoxy)phenyl]imidazo [1,2-a]pyrazin-8-yl]amino]-2-methylbenzamide], the concentration for an effect of 90% (IC90) is 1200 nM.

Regarding `Cc1cc(Nc2nccn3c(-c4ccc(OC(F)F)cc4)cnc23)ccc1C(=O)NCC[S+]([O-])CCN` (stereo not drawn) [Example 47, N-(2-((2-Aminoethyl)sulfinyl)ethyl)-4-((3-(4-(difluoromethoxy)phenyl)imidazo[1,2-a]pyrazin-8-yl)amino)-2-methylbenzamide], the IC90 turned out to be 920 nM.

On to `COc1ccc(-c2cnc3c(Nc4ccc(C(=O)NCCOCCNCCO)c(C)c4)nccn23)cc1` [Example 40, N-(2-(2-((2-hydroxyethyl)amino)ethoxy)ethyl)-4-((3-(4-methoxyphenyl)imidazo[1,2-a]pyrazin-8-yl)amino)-2-methylbenzamide], for which the concentration for an effect of 90% (IC90) was found to be 210 nM.

In the case of `COc1ccc(-c2cnc3c(Nc4ccc(C(=O)NCCOCCN5CCOC5=O)c(C)c4)nccn23)cc1` [Example 76, 4-[[3-(4-methoxyphenyl)imidazo[1,2-a]pyrazin-8-yl]amino]-2-methyl-N-[2-[2-(2-oxo-1,3-oxazolidin-3-yl)ethoxy]ethyl] benzamide], the IC90 worked out at 720 nM.

As to `Cc1cc(Nc2nccn3c(-c4ccc(OCC#CCN)c(F)c4F)cnc23)ccc1C(=O)NCCOCCN` [Example 160, 4-[[3-[4-(4-aminobut-2-ynoxy)-2,3-difluorophenyl]imidazo[1,2-a]pyrazin-8-yl]amino]-N-[2-(2-aminoethoxy)ethyl]-2-methylbenzamide], the IC90 amounted to 430 nM.

Still in this assay, the particulars now being: Acinetobacter baumannii, ATCC17978, 16 h, read-out: ATCC 17978 IC90.
For the compound `Cc1cc(Nc2nccn3c(-c4ccc(F)cc4F)cnc23)ccc1C(=O)NCCOCCN` [Example 35, N-(2-(2-aminoethoxy)ethyl)-4-((3-(2,4-difluorophenyl)imidazo[1,2-a]pyrazin-8-yl)amino)-2-methylbenzamide hydrochloride], the 90% effect concentration (IC90) was determined as 770 nM.

In the case of `Cc1cc(Nc2nccn3c(-c4ccc(F)c(F)c4)cnc23)ccc1C(=O)NCCOCCN` [Example 33, N-(2-(2-aminoethoxy)ethyl)-4-((3-(3,4-difluorophenyl)imidazo[1,2-a]pyrazin-8-yl)amino)-2-methylbenzamide hydrochloride], the concentration for an effect of 90% (IC90) stood at 520 nM.

Source of the values: patent US20230017532A1 (Hoffmann-La Roche Inc., priority 2018, published 2023).
